Source: the supplement of paper PMC8882468

Key:
Experiment in all cases: CTG-3D luminescence at 96 h relative to day-0 seeding control (ratio to day 0); higher = more growth / less cytotoxicity; PDxO 3D drug screen (set 2), 96 h, CTG-3D normalised to day-0 seeding control.
[1] = system: HCI-003.E2 (organoid from an ER-positive breast cancer xenograft)
[2] = system: HCI-010 (organoid from a breast cancer xenograft)
[3] = system: HCI-017.E2 (organoid from an ER-positive breast cancer xenograft)
[4] = system: HCI-019 (organoid from a triple-negative breast cancer xenograft)
[5] = system: HCI-023 (organoid from a triple-negative breast cancer xenograft)
[6] = system: HCI-025 (organoid from a breast cancer xenograft)

CCOc1ccn(-c2ccc(F)cc2)c(=O)c1C(=O)Nc1ccc(Oc2ccnc(N)c2Cl)c(F)c1 [ASLAN002]
CTG-3D luminescence at 96 h
Conditions	12.5 pM	0.00025 µM	0.005 µM	0.1 µM	1 µM	10 µM	100 µM	625 fM
[1]	2.68	2.58	2.76	2.78	2.47	1.97	1.09	2.78
[3]	2.06	2.58	2.12	2.27	2.14	2.39	1.17	2.34

CTG-3D luminescence at 96 h
Conditions	12.5 pM	0.00025 µM	0.005 µM	0.1 µM	1 µM	10 µM	100 µM	625 fM
[2], days in culture: 79	1.78	1.68	1.94	2.05	1.8	1.55	0.742	1.97
[2], days in culture: 86	2.24	2.35	2.82	2.77	2.48	2.23	0.77	2.51
[2], days in culture: 102	1.1	1.26	1.21	1.48	1.41	1.14	0.252	0.941
[2], days in culture: 164	1.62	1.61	1.72	1.74	1.66	1.3	0.248	1.36
[3], days in culture: 85	2.5	1.78	1.94	2.7	2.23	1.93	1.32	2.13
[4], days in culture: 173	2.03	1.61	1.52	3.51	1.6	1.16	1.12	1.28
[4], days in culture: 194	1.11	1.59	0.978	1.46	0.851	0.875	1.1	1.75
[4], days in culture: 215	1.3	0.756	1.22	1.28	2.09	0.724	0.591	1.91
[5], days in culture: 223	1.5	2.83	1.7	2.8	1.5	1.49	1.03	1.61
[5], days in culture: 238	1.66	1.62	1.17	1.42	1.76	1.05	0.917	1.58
[5], days in culture: 252	1.99	1.93	1.78	2.01	2.08	1.47	1.15	2.04
[6], days in culture: 175	1.55	1.97	1.91	2.81	2.73	2.56	1.7	1.46
[6], days in culture: 189	2.49	2.61	1.96	2.27	2.6	1.72	0.561	2.72
[6], days in culture: 212	1.41	1.8	3.86	1.18	0.524	1.75	0.694	1.16
[6], days in culture: 224	2.08	0.982	2.02	1.32	1.95	1.87	1.18	1.86

C[C@@H](Nc1cc(F)cc(F)c1)c1cc(C(=O)N(C)C)cc2c(=O)cc(N3CCOCC3)oc12 [AZD-8186]
CTG-3D luminescence at 96 h
Conditions	12.5 pM	0.00025 µM	0.005 µM	0.1 µM	1 µM	10 µM	100 µM	625 fM
[1]	2.53	2.56	2.18	2.38	2.13	1.28	0.0452	2.58
[3]	2.08	2.64	2.27	2.48	1.89	1.096	0.252	2.74

CTG-3D luminescence at 96 h
Conditions	12.5 pM	0.00025 µM	0.005 µM	0.1 µM	1 µM	10 µM	100 µM	625 fM
[2], days in culture: 79	1.88	1.85	1.94	1.98	1.58	1.1	0.138	2.14
[2], days in culture: 86	2.26	2.36	2.34	2.1	1.99	1.67	0.321	2.16
[2], days in culture: 102	1.18	0.973	1.18	1.19	1.19	0.856	0.0314	1.26
[2], days in culture: 164	1.6	1.49	1.64	1.37	1.4	1.02	0.0763	1.52
[3], days in culture: 85	1.85	1.86	1.62	2.05	1.45	1.14	0.197	2.07
[4], days in culture: 173	3.42	1.4	1.36	2.98	2.28	0.532	0.37	1.05
[4], days in culture: 194	1.94	1.36	1.46	2.1	1.87	1.3	0.367	1.03
[4], days in culture: 215	1.9	1.48	0.854	1.62	0.82	1.39	0.374	1.8
[5], days in culture: 223	1.94	2.6	1.75	1.98	1.44	1.93	1.14	1.74
[5], days in culture: 238	1.54	1.51	1.31	1.41	1.7	1.3	1.05	1.54
[5], days in culture: 252	2.12	1.88	1.63	1.81	1.91	2.09	1.5	1.99
[6], days in culture: 175	1.63	2.47	1.8	1.98	2.4	3.48	1.34	1.51
[6], days in culture: 189	2.22	1.46	1.89	1.5	1.81	1.88	0.528	3.16
[6], days in culture: 212	1.07	3.57	2.79	1.25	0.857	1.27	1.2	1.56
[6], days in culture: 224	1.99	2.38	1.66	2	2.68	1.8	1.09	2.03

Cc1c(CN2CCN(C(=O)[C@H](C)O)CC2)sc2c(N3CCOCC3)nc(-c3cnc(N)nc3)nc12 [apitolisib]
CTG-3D luminescence at 96 h
Conditions	12.5 pM	0.00025 µM	0.005 µM	0.1 µM	1 µM	10 µM	100 µM	625 fM
[1]	2.46	2.27	2.31	1.31	0.0639	0.0361	0.0424	2.82
[3]	2.28	2.54	2.21	1.43	0.397	0.399	0.223	2.43

CTG-3D luminescence at 96 h
Conditions	12.5 pM	0.00025 µM	0.005 µM	0.1 µM	1 µM	10 µM	100 µM	625 fM
[2], days in culture: 79	1.94	1.83	1.96	1.68	0.503	0.107	0.0163	2.13
[2], days in culture: 86	2.03	2.34	2.49	1.94	0.554	0.242	0.088	2.27
[2], days in culture: 102	1.17	1.35	1.21	0.954	0.286	0.0291	0.0044	0.944
[2], days in culture: 164	1.71	1.39	1.57	1.27	0.641	0.265	0.0363	1.33
[3], days in culture: 85	2.14	1.73	1.52	1.36	0.359	0.278	0.161	2.09
[4], days in culture: 173	2.46	1.25	0.933	2.29	0.88	0.36	0.336	1.93
[4], days in culture: 194	1.95	1.96	2.18	0.828	0.744	0.462	0.305	1.85
[4], days in culture: 215	0.992	1.33	1.51	0.699	0.362	0.15	0.168	1.4
[5], days in culture: 223	2.19	2.65	1.81	1.85	0.861	0.971	0.469	2.04
[5], days in culture: 238	1.77	1.62	1.45	1.58	1.5	0.763	0.38	1.65
[5], days in culture: 252	1.95	1.92	1.7	2.06	1.62	0.654	0.459	1.97
[6], days in culture: 175	1.49	1.72	1.53	1.89	0.73	0.467	0.419	1.16
[6], days in culture: 189	1.77	1.49	1.66	1.41	0.518	0.179	0.121	2.67
[6], days in culture: 212	2.2	3.51	2.34	0.777	0.534	0.218	0.139	0.788
[6], days in culture: 224	2.45	2.02	2.09	1.35	0.679	0.351	0.267	2

Nc1cc(C(F)(F)F)c(-c2cc(N3CCOCC3)nc(N3CCOCC3)n2)cn1 [buparlisib]
CTG-3D luminescence at 96 h
Conditions	12.5 pM	0.00025 µM	0.005 µM	0.1 µM	1 µM	10 µM	100 µM	625 fM
[1]	2.55	2.29	2.6	2.53	0.705	0.037	0.0142	2.71
[3]	1.864	2.59	2.12	2.15	0.869	0.263	0.208	2.26

CTG-3D luminescence at 96 h
Conditions	12.5 pM	0.00025 µM	0.005 µM	0.1 µM	1 µM	10 µM	100 µM	625 fM
[2], days in culture: 79	1.69	1.83	1.84	1.83	1.02	0.456	0.0891	2
[2], days in culture: 86	2	2.29	2.49	2.33	1.36	0.525	0.146	2.19
[2], days in culture: 102	1.08	1.24	1.36	1.38	0.738	0.309	0.0336	0.982
[2], days in culture: 164	1.62	1.52	1.57	1.65	1.04	0.556	0.11	1.37
[3], days in culture: 85	2.1	1.79	1.67	1.9	0.668	0.194	0.256	2.53
[4], days in culture: 173	2.34	1.59	2.11	1.58	1.45	0.425	0.353	1.61
[4], days in culture: 194	1.92	1.72	2.05	2.27	0.78	0.454	0.358	3.95
[4], days in culture: 215	1.75	1.27	1.46	1.85	0.763	0.382	0.188	1.2
[5], days in culture: 223	2.1	2.58	1.97	2.26	0.929	0.895	1.04	2.64
[5], days in culture: 238	1.41	1.77	1.57	1.4	1.23	0.672	0.628	1.46
[5], days in culture: 252	2.06	2.07	1.65	2.23	1.58	0.8	0.794	2.06
[6], days in culture: 175	1.38	1.85	1.95	1.88	1.75	0.433	0.118	1.71
[6], days in culture: 189	2.47	2.03	1.96	1.69	1.36	0.246	0.0627	2.83
[6], days in culture: 212	3.39	3.81	2.06	1.13	1.13	0.331	0.0312	1.54
[6], days in culture: 224	2.03	2.32	1.5	1.44	1.75	0.339	0.136	1.69
